Results on 19 molecules are retold here after patent US12319655B2, “RAF kinase inhibitors and methods of use thereof” (Deciphera Pharmaceuticals, LLC, priority 2021, dated 2025).

The structures appear in SMILES notation.

One test deals with Miapaca-2 cells. The experiment in a line: MiaPaca-2 Combination Cell proliferation Assay (1) with cobimetinib. Format: cell-based. As to conditions: MiaPaca-2 cell proliferation, read-out: MiaPaca-2 Combo (1) IC50. Here is the method: MiaPaca-2 Combination Cell proliferation Assay (1)
Miapaca-2 cells (catalog #CRL-1420) are obtained from the American Type Culture Collect (ATCC, Manassas, VA). Briefly, cells were grown in DMEM supplemented with 10% characterized fetal bovine serum (Invitrogen, Carlsbad, CA), 2.5% New Zealand sourced horse serum and 1% Penicillin/Streptomycin/L-Glutamine at 37° C., 5% CO2, and 95% humidity. Cells are expanded until reaching 70-95% confluency at which point they are subcultured or harvested for assay use. A serial dilution of test compound was dispensed into multiple 96-well black clear bottom plates in triplicate. A serial dilution of complete growth medium containing cobimetinib was prepared at twice the final concentration and 100 μL was dispensed across the test compound titration in triplicate. Three thousand cells are added per well in 100 μL complete growth medium in each 96-well plate. Plates are incubated for 67-72 hours at 37° C., 5% CO2, and 95% humidity. At the end of the incubation, 40 μL of a 440 μM solution of resazurin (Sigma, St. Louis, MO) in PBS is added to each well of the plate and plates are incubated for an additional 5-7 hours at 37° C., 5% CO2, and 95% humidity. Plates are read on a Synergy2 or equivalent reader (Biotek, Winooski VT) using an excitation of 540 nm and an emission of 600 nm. Drug synergy was assessed via BLISS analysis in the Combenefit software (Cancer Research UK Cambridge Institute, Cambridge, UK). Data is analyzed using Prism software (Graphpad, San Diego, CA) to calculate IC50 values. Shifts in test compound IC50 values are reported from top-constrained combination therapy curves.

Another test has as its system WM3629 cells. Description: WM3629 Cell Proliferation Assay (1). Format: cell-based. Here is the method: WM3629 Cell Proliferation Assay (1)
WM3629 cells (#WM3629-01-0001) are obtained from Rockland Immunochemicals Inc (Gilbertsville, PA). Briefly, cells were grown in MCDB 153 medium (Sigma, #M7403, St. Louis, MO) supplemented with 20% Leibovitz's L-15 (ThermoFisher #11415-064, Waltham, MA), 2% heat inactivated fetal bovine serum (ThermoFisher, #A3840001, Waltham, MA), 5 μg/mL Insulin (Bovine Pancreas) (Sigma, #10516, St. Louis, MO), 1.68 mM Calcium Chloride (Sigma, #C-34006, St. Louis, MO) and 1% Penicillin/Streptomycin/L-Glutamine (ThermoFisher #10378016, Waltham, MA) at 37° C., 5% CO2, and 95% humidity. Cells are expanded until reaching 70-95% confluency at which point they are subcultured or harvested for assay use. A serial dilution of test compound is dispensed into a 96-well black clear bottom plate in triplicate. Four thousand five hundred cells are added per well in 200 μL complete growth medium in the 96-well plate. Plates are incubated for 67-72 hours at 37° C., 5% CO2, and 95% humidity. At the end of the incubation, 40 μL of a 440 μM solution of resazurin (Sigma, #199303, St. Louis, MO) in PBS is added to each well of the plate and plates are incubated for an additional 6-7 hours at 37° C., 5% CO2, and 95% humidity. Plates are read on a Synergy2 or equivalent reader (Biotek, Winooski VT) using an excitation of 540 nm and an emission of 600 nm. Data is analyzed using Prism software (GraphPad, San Diego, CA) to calculate IC50 values.

Usually IC50 stands for the concentration needed to halve the response being measured.

Consider `CC(=O)Nc1cc(-c2cc(-c3cc(NC(=O)c4ccnc(C(F)(F)F)c4)c(F)cc3C)cc(C)n2)ccn1` [Example 4], for which the IC50 with Miapaca-2 cells is no more than 100 nM.

Take `Cc1cc(F)c(NC(=O)c2ccnc(C(F)(F)F)c2)cc1-c1ccnc(-c2ccnc(NC(=O)CN(C)C)c2)c1` [Example 7]: the IC50 with Miapaca-2 cells lay within 100 to 500 nM.

With `CC(=O)Nc1cc(-c2ccnc(-c3cc(NC(=O)c4ccnc(C(C)(C)C#N)c4)ccc3C)n2)ccn1` [Example 103], the IC50 in the test with Miapaca-2 cells is no more than 100 nM.

On to `Cc1cc(F)c(NC(=O)c2ccnc(C(C)(C)C#N)c2)cc1-c1ccnc(-c2ccnc(NC=O)c2)c1` [Example 104], for which the IC50 in the test with Miapaca-2 cells is no more than 100 nM.

As for `Cc1ccc(NC(=O)c2ccnc(C(C)(C)C#N)c2)cc1-c1cncc(-c2ccnc(NC(=O)C3CC3)c2)n1` [Example 112], the IC50 in the test with Miapaca-2 cells is no more than 100 nM.

For `Cc1ccc(NC(=O)c2ccnc(C(F)F)c2)cc1-c1cncc(-c2ccnc(NC(=O)C3CC3)c2)n1` [Example 117], in the test with Miapaca-2 cells, the IC50 is no more than 100 nM.

Consider `CC(=O)Nc1cc(-c2nccc(-c3cc(NC(=O)c4ccnc(C(C)(C)C#N)c4)ccc3C)n2)ccn1` [Example 118], for which the IC50 in the test with Miapaca-2 cells was no more than 100 nM.

Consider `CC(=O)Nc1cc(-c2cncc(-c3cc(NC(=O)c4cc(C(F)(F)F)ccn4)ccc3C)n2)ccn1` [Example 124], for which the IC50 in the test with Miapaca-2 cells was no more than 100 nM.

Consider `CNC(=O)c1cc(-c2cc(-c3cc(NC(=O)c4cccc(C(C)(C)C#N)c4)ccc3C)ccn2)ccn1` [Example 127], for which, in the test with Miapaca-2 cells, the IC50 is no more than 100 nM.

Take `Cc1ccc(NC(=O)c2ccnc(C(C)(C)C#N)c2)cc1-c1cccc(-c2ccnc3[nH]ncc23)c1` [Example 134]: the IC50 in the test on Miapaca-2 cells lay in the range of 100 to 500 nM.

For the molecule `CNC(=O)c1cc(-c2cncc(-c3cc(NC(=O)c4ccnc(C5(C#N)CC5)c4)ccc3C)n2)ccn1` [Example 138], in the test with Miapaca-2 cells, the IC50 fell in the range of 100 to 500 nM.

In the case of `CNC(=O)c1cc(-c2cc(-c3cc(NC(=O)c4ccnc(C(C)(C)C#N)c4)cnc3C)ccn2)ccn1` [Example 158], the half-inhibitory concentration (IC50) in the test on Miapaca-2 cells was no more than 100 nM.

For the molecule `CNc1cc(-c2cccc(-c3cc(NC(=O)c4ccnc(C(C)(C)C#N)c4)ccc3C)c2)ncn1` [Example 160], the IC50 in the test with Miapaca-2 cells was 100 to 500 nM.

Take `Cc1ncc(NC(=O)c2ccnc(C(C)(C)C#N)c2)cc1-c1cccc(-c2ccnc(NC(=O)C3CC3)c2)n1` [Example 172]: the IC50 in the test on Miapaca-2 cells was no more than 100 nM.

In the case of `CNC(=O)c1cc(-c2nccc(-c3cc(NC(=O)c4ccnc(C5(C#N)CC5)c4)ccc3C)n2)ccn1` [Example 175], the IC50 in the test on Miapaca-2 cells was no more than 100 nM.

With `CNC(=O)c1cc(-c2cc(-c3cc(NC(=O)c4ccnc(C5(C#N)CC5)c4)ccc3C)ncn2)ccn1` [Example 178], the IC50 in the test with WM3629 cells is no more than 100 nM.

For the molecule `Cc1ccc(NC(=O)c2ccnc(C3(C#N)CC3)c2)cc1-c1ccnc(-c2ccnc(NC(=O)C3CC3)c2)n1` [Example 180], the half-inhibitory concentration (IC50) in the test on WM3629 cells is no more than 100 nM.

For `Cc1ncc(NC(=O)c2ccnc(C(C)(C)C#N)c2)cc1-c1cccc(-c2cc(NC(=O)C3CC3)ncn2)c1` [Example 181], the IC50 in the test on WM3629 cells and with Miapaca-2 cells was no more than 100 nM in each case.

Consider `Cc1ccc(NC(=O)c2ccnc(C3CC3)c2)cc1-c1cncc(-c2ccnc(NC(=O)C3CC3)c2)n1` [Example 184], for which the IC50 in the test with Miapaca-2 cells is no more than 100 nM.
